Laboratory results from ChEMBL document CHEMBL4699592, “Nature-Inspired (di)Azine-Bridged Bisindole Alkaloids with Potent Antibacterial In Vitro and In Vivo Efficacy against Methicillin-Resistant Staphylococcus aureus” (J Med Chem, 2020).
Converted amounts (≈) assume the structure as drawn. The source made the active and inactive calls. No cut-off for these calls is given here.

Tests used:
Cell membrane [1] = test: Induction of cell membrane permeabilization in GFP-expressing Staphylococcus aureus ATCC 700699 assessed as increase in cellular ATP leakage at 5 fold MIC measured after 0.5 hrs by Bactiter-glo assay; type: subcellular
Cell membrane [2] = test: Induction of cell membrane permeabilization in methicillin resistant Staphylococcus aureus ATCC 700699 measured at 5 mins interval for 2 hrs by propidium iodide staining based fluorescence assay; type: subcellular
Staphylococcus aureus [3] = test: Antibacterial activity against […] Staphylococcus aureus ATCC 700699 after 24 hrs by broth microdilution method; type: functional
[4] = system: Mycobacterium tuberculosis; test: Antibacterial activity against Mycobacterium tuberculosis H37Rv at 0.78 to 100 uM after 5 days by resazurin dye based fluorescence assay; type: functional, organism-based; settings: dose microM 0.78-100, time 5.0 day
Acinetobacter baumannii [5] = test: Antibacterial activity against Acinetobacter baumannii ATCC BAA-1605 at 0.78 to 100 uM after 24 hrs by broth microdilution method; type: functional, organism-based; settings: dose microM 0.78-100, time 24.0 hrs
[6] = Solubility of compound in pH 7.7 PBS buffer; type: physicochemical
[7] = Selectivity index, ratio of IC50 for cytotoxicity against human MRC5 cells to MIC90 for antibacterial activity against […] Staphylococcus aureus ATCC 700699; type: toxicity, cell-based; settings: read-out: Selectivity Index
Staphylococcus aureus [8] = test: Antibacterial activity against methicillin-resistant Staphylococcus aureus USA300 LAC at 0.15 to 25 uM incubated for 24 hrs under low glucose medium by resazurin dye based fluorescence assay; type: functional, organism-based; settings: dose microM 0.15-25, time 24.0 hrs
[9] = Selectivity index, ratio of IC50 for cytotoxicity against human THP-1 cells to MIC90 for antibacterial activity against […] Staphylococcus aureus ATCC 700699; type: toxicity, cell-based; settings: read-out: Selectivity Index
Staphylococcus aureus [10] = test: Antibacterial activity against methicillin-resistant pyruvate kinase deficient Staphylococcus aureus USA300 LAC at 0.15 to 25 uM incubated for 24 hrs under low pyruvate containing medium by resazurin dye based fluorescence assay; type: functional, organism-based; settings: dose microM 0.15-25, time 24.0 hrs
Staphylococcus aureus [11] = test: Bactericidal activity against […] Staphylococcus aureus ATCC 700699 assessed as colony forming units at 5 fold MIC measured after 24 hrs by time kill assay; type: functional
THP-1 = test: Cytotoxicity against human THP-1 cells assessed as reduction in cell viability at >=12.5 uM measured after 48 hrs by resazurin dye based fluorescence assay; settings: thp-1, 48 h
Staphylococcus aureus [12] = test: Bactericidal activity against […] Staphylococcus aureus ATCC 700699 assessed as reduction in bacterial viability at 5 fold MIC incubated for 6 hrs by time kill assay relative to control; type: functional
Staphylococcus aureus [13] = test: Antibacterial activity against methicillin-resistant Staphylococcus aureus USA300 LAC at 0.15 to 25 uM incubated for 24 hrs under low pyruvate containing medium by resazurin dye based fluorescence assay; type: functional, organism-based; settings: dose microM 0.15-25, time 24.0 hrs
MRC5 = test: Cytotoxicity against human MRC5 cells assessed as reduction in cell viability at >=12.5 uM measured after 48 hrs by resazurin dye based fluorescence assay; settings: mrc5, 48 h
[14] = target: Pyruvate kinase PKM (Oryctolagus cuniculus) (UniProt P11974); test: Inhibition of rabbit muscle pyruvate kinase up to 12.5 uM using phosphoenolpyruvate as substrate measured for 5 mins by LDH-coupled assay; settings: dose microM <=12.5, time 5.0 min
HepG2 = test: Cytotoxicity against human HepG2 cells assessed as reduction in cell viability at >12.5 uM measured after 48 hrs by resazurin dye based fluorescence assay; settings: hepg2, 48 h
[15] = Cytotoxicity against human CLS-54 cells assessed as reduction in cell viability at >12.5 uM measured after 48 hrs by resazurin dye based fluorescence assay; settings: cls-54, 48 h
Enterococcus faecalis [16] = test: Antibacterial activity against Enterococcus faecalis ATCC 29212 at 0.78 to 100 uM after 24 hrs by broth microdilution method; type: functional, organism-based; settings: dose microM 0.78-100, time 24.0 hrs
HEK293 = test: Cytotoxicity against HEK293 cells assessed as reduction in cell viability at >12.5 uM measured after 48 hrs by resazurin dye based fluorescence assay; settings: human, hek293, 48 h
Enterococcus faecium [17] = test: Antibacterial activity against vancomycin-resistant Enterococcus faecium ATCC 700221 at 0.78 to 100 uM after 24 hrs by broth microdilution method; type: functional, organism-based; settings: dose microM 0.78-100, time 24.0 hrs
Staphylococcus aureus [18] = test: Inhibition of Staphylococcus aureus ATCC 700699 N-terminal His6-tagged pyruvate kinase expressed in Escherichia coli NiCo21(DE3) at 12.5 uM using phosphoenolpyruvate as substrate measured for 5 mins by LDH-coupled assay
Enterococcus faecalis [19] = test: Antibacterial activity against Enterococcus faecalis ATCC 51299 at 0.78 to 100 uM after 24 hrs by broth microdilution method; type: functional, organism-based; settings: dose microM 0.78-100, time 24.0 hrs
Enterococcus faecium [20] = test: Antibacterial activity against vancomycin-resistant Enterococcus faecium ATCC 35667 at 0.78 to 100 uM after 24 hrs by broth microdilution method; type: functional, organism-based; settings: dose microM 0.78-100, time 24.0 hrs
Staphylococcus aureus [21] = test: Antibacterial activity against methicillin susceptible Staphylococcus aureus ATCC 25923 at 0.78 to 100 uM after 24 hrs by broth microdilution method; type: functional, organism-based; settings: dose microM 0.78-100, time 24.0 hrs
Escherichia coli = test: Antimicrobial activity against Escherichia coli ATCC BAA 2469 after 24 hrs by broth microdilution assay; type: functional
Klebsiella pneumoniae = test: Antibacterial activity against Klebsiella pneumoniae ATCC 700603 after 24 hrs by broth microdilution method; type: functional
Pseudomonas aeruginosa = test: Antibacterial activity against Pseudomonas aeruginosa ATCC 27853 measured after 24 hrs by broth microdilution method; type: functional
Acinetobacter baumannii [22] = test: Antibacterial activity against Acinetobacter baumannii ATCC BAA-1605 after 24 hrs by broth microdilution method; type: functional

Sequence of Pyruvate kinase PKM (Oryctolagus cuniculus) (P11974 whole entry): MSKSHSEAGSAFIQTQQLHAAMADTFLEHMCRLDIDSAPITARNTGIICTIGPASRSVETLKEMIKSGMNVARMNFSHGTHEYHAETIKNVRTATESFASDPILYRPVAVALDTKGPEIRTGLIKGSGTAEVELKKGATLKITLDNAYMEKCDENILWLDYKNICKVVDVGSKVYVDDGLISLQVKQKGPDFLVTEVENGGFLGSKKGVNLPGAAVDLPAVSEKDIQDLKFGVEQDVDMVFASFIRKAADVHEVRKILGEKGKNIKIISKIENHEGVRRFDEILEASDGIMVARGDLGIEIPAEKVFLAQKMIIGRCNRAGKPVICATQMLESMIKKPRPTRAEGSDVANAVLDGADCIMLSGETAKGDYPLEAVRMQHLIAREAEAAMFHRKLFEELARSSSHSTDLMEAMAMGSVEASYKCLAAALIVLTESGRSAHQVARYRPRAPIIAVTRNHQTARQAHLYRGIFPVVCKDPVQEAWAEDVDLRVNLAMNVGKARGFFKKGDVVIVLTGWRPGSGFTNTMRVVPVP

CC(=O)NC[C@H]1CN(c2ccc(N3CCOCC3)c(F)c2)C(=O)O1
Activity (Cell membrane [1]): inactive
Activity (Cell membrane [2]): inactive

Fc1ccc2[nH]cc(-c3cnc(-c4c[nH]c5ccc(F)cc45)cn3)c2c1
MIC90 (Staphylococcus aureus [3]): > 100 µM
Activity [4]: inactive
Activity (Acinetobacter baumannii [5]): inactive

Clc1ccc2[nH]cc(-c3cncc(-c4c[nH]c5ccc(Cl)cc45)n3)c2c1
MIC90 (Staphylococcus aureus [3]): 0.39 µM (≈ 0.148 µg/mL)
solubility [6]: Insoluble
Activity [4]: inactive
Activity (Acinetobacter baumannii [5]): inactive

c1cc(-c2c[nH]c3ccccc23)nc(-c2c[nH]c3ccccc23)c1
MIC90 (Staphylococcus aureus [3]): > 100 µM
Activity [4]: inactive
Activity (Acinetobacter baumannii [5]): inactive

Brc1ccc2c(-c3cnc(-c4c[nH]c5cc(Br)ccc45)cn3)c[nH]c2c1
MIC90 (Staphylococcus aureus [3]): > 100 µM
Activity [4]: inactive
Activity (Acinetobacter baumannii [5]): inactive

Fc1ccc2[nH]cc(-c3cnc(-c4c[nH]c5ccc(F)cc45)nc3)c2c1
MIC90 (Staphylococcus aureus [3]): 12.5 µM (≈ 4.33 µg/mL)
Activity [4]: inactive
Activity (Acinetobacter baumannii [5]): inactive

COc1ccc2[nH]cc(-c3cccc(-c4c[nH]c5ccc(OC)cc45)n3)c2c1
MIC90 (Staphylococcus aureus [3]): 12.5 µM (≈ 4.62 µg/mL)
Activity [4]: inactive
Activity (Acinetobacter baumannii [5]): inactive

Clc1ccc2[nH]cc(-c3ccc(-c4c[nH]c5ccc(Cl)cc45)nn3)c2c1
selectivity ratio [7]: 8
Activity (Staphylococcus aureus [8]): Active
selectivity ratio [9]: 8
Activity (Staphylococcus aureus [10]): Active
Activity (Staphylococcus aureus [11]): <10 CFU/ml
Activity (THP-1): Toxic
MIC90 (Staphylococcus aureus [3]): 0.78 µM (≈ 0.296 µg/mL)
Activity [4]: inactive
fold change (FC) (Staphylococcus aureus [12]): 100
Activity (Staphylococcus aureus [13]): Active
Activity (MRC5): Toxic
Activity (Acinetobacter baumannii [5]): inactive

c1ccc2c(-c3cnc(-c4c[nH]c5ccccc45)cn3)c[nH]c2c1
MIC90 (Staphylococcus aureus [3]): > 100 µM
Activity [4]: inactive
Activity (Acinetobacter baumannii [5]): inactive

Clc1ccc2[nH]cc(-c3ccnc(-c4c[nH]c5ccc(Cl)cc45)n3)c2c1
inhibition [14]: inactive
Activity (HepG2): Toxic
selectivity ratio [7]: 32
Activity [15]: Toxic
Activity (Enterococcus faecalis [16]): Active
Activity (Staphylococcus aureus [8]): Active
selectivity ratio [9]: 32
Activity (HEK293): Toxic
Activity (Staphylococcus aureus [10]): Active
Activity (Staphylococcus aureus [11]): <10 CFU/ml
Activity (THP-1): Toxic
Activity (Enterococcus faecium [17]): Active
MIC90 (Staphylococcus aureus [3]): 3.13 µM (≈ 1.19 µg/mL)
inhibition (Staphylococcus aureus [18]): inactive
Activity [4]: Active
fold change (FC) (Staphylococcus aureus [12]): 10000
Activity (Enterococcus faecalis [19]): Active
Activity (Staphylococcus aureus [13]): Active
Activity (Enterococcus faecium [20]): Active
Activity (Staphylococcus aureus [21]): Active
Activity (MRC5): Toxic
Activity (Acinetobacter baumannii [5]): Active

c1ccc2c(-c3cnc(-c4c[nH]c5ccccc45)nc3)c[nH]c2c1
MIC90 (Staphylococcus aureus [3]): 12.5 µM (≈ 3.88 µg/mL)
Activity [4]: inactive
Activity (Acinetobacter baumannii [5]): inactive

c1cc(-c2c[nH]c3ncccc23)nc(-c2c[nH]c3ncccc23)c1
MIC90 (Staphylococcus aureus [3]): > 100 µM
Activity [4]: inactive
Activity (Acinetobacter baumannii [5]): inactive

Brc1ccc2[nH]cc(-c3cnc(-c4c[nH]c5ccc(Br)cc45)cn3)c2c1
selectivity ratio [7]: 8
Activity (Staphylococcus aureus [8]): Active
selectivity ratio [9]: 8
Activity (Staphylococcus aureus [10]): Active
Activity (THP-1): Toxic
MIC90 (Staphylococcus aureus [3]): 1.56 µM (≈ 0.73 µg/mL)
solubility [6]: Insoluble
Activity [4]: inactive
fold change (FC) (Staphylococcus aureus [12]): 10000
Activity (Staphylococcus aureus [13]): Active
Activity (MRC5): Toxic
Activity (Acinetobacter baumannii [5]): inactive

COc1c(N2C[C@@H]3CCCN[C@@H]3C2)c(F)cc2c(=O)c(C(=O)O)cn(C3CC3)c12
Activity (Cell membrane [1]): inactive
Activity (Cell membrane [2]): inactive

Oc1ccc2[nH]cc(-c3cnc(-c4c[nH]c5ccc(O)cc45)cn3)c2c1
Activity (Enterococcus faecalis [16]): inactive
Activity (Enterococcus faecium [17]): inactive
MIC90 (Staphylococcus aureus [3]): > 100 µM
Activity [4]: inactive
Activity (Enterococcus faecalis [19]): inactive
Activity (Enterococcus faecium [20]): inactive
Activity (Staphylococcus aureus [21]): inactive
Activity (Acinetobacter baumannii [5]): inactive

c1ccc2c(-c3ccc(-c4c[nH]c5ccccc45)nn3)c[nH]c2c1
MIC90 (Staphylococcus aureus [3]): > 100 µM
Activity [4]: inactive
Activity (Acinetobacter baumannii [5]): inactive

COc1ccc2[nH]cc(-c3cnc(-c4c[nH]c5ccc(OC)cc45)nc3)c2c1
Activity (Enterococcus faecalis [16]): inactive
Activity (Enterococcus faecium [17]): inactive
MIC90 (Staphylococcus aureus [3]): 50 µM (≈ 18.5 µg/mL)
Activity [4]: inactive
Activity (Enterococcus faecalis [19]): inactive
Activity (Enterococcus faecium [20]): inactive
Activity (Staphylococcus aureus [21]): inactive
Activity (Acinetobacter baumannii [5]): inactive

COc1ccc2[nH]cc(-c3cnc(-c4c[nH]c5ccc(OC)cc45)cn3)c2c1
Activity (Enterococcus faecalis [16]): inactive
Activity (Enterococcus faecium [17]): inactive
MIC90 (Staphylococcus aureus [3]): > 100 µM
Activity [4]: inactive
Activity (Enterococcus faecalis [19]): inactive
Activity (Enterococcus faecium [20]): inactive
Activity (Staphylococcus aureus [21]): inactive
Activity (Acinetobacter baumannii [5]): inactive

Oc1ccc2[nH]cc(-c3cnc(-c4c[nH]c5ccc(O)cc45)nc3)c2c1 [HYRTINADINE A]
Activity (Enterococcus faecalis [16]): inactive
Activity (Enterococcus faecium [17]): inactive
MIC90 (Staphylococcus aureus [3]): > 100 µM
Activity [4]: inactive
Activity (Enterococcus faecalis [19]): inactive
Activity (Enterococcus faecium [20]): inactive
Activity (Staphylococcus aureus [21]): inactive
Activity (Acinetobacter baumannii [5]): inactive

COLISTIN
MIC (Escherichia coli): 0.78 µM
MIC (Klebsiella pneumoniae): 1.56 µM
MIC (Pseudomonas aeruginosa): 0.39 µM
MIC (Acinetobacter baumannii [22]): 0.78 µM
